Earlier results as cited in patent US20210095288A1, “METHODS OF MODULATING NKX6.3” (SOCIETE DES PRODUITS NESTLE S.A., priority 2018, published 2021).

System: NKX6.3
Settings: effect on NKX6.3 expression; from Davis A P, et al., Comparative Toxicogenomics Database: update 2017

Compound | Interaction Actions
COC[C@@H]([C@H](O)[C@H](O)C(=O)NCC[C@H](C)c1nc(/C=C/C[C@@H]2O[C@]3(C[C@@H](O)[C@@H]2C)O[C@H]([C@H](C[C@H](O)[C@H](C)[C@H](O)[C@H](C)/C=C(C)/C(C)=C/C=C/C(C)=C\C#N)OC)[C@H](OP(=O)(O)O)C3(C)C)co1)N(C)C [calyculin A] | Decreases
CC(C)(c1ccc(O)cc1)c1ccc(O)cc1 [bisphenol A] | Decreases
CCC[CH2][Sn]([CH2]CCC)([CH2]CCC)[O][Sn]([CH2]CCC)([CH2]CCC)[CH2]CCC [bis(tri-n-butyltin)oxide] | Decreases
CC(=O)Nc1ccc(O)cc1 [Acetaminophen] | Decreases
CCCc1cc(=O)[nH]c(=S)[nH]1 [Propylthiouracil] | Decreases
